{"source": "patent US8192962B2", "about": "“Processes for detecting toxic substances” (Daikin Industries, Ltd., priority 2001, dated 2012)", "test_system": "Genes belonging to other category", "experiment": "DNA chip mRNA expression in yeast, genes belonging to other category (Table 9)", "assay_type": "cell-based, Saccharomyces cerevisiae S288C", "summary_of_the_method": "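Measured as treated-to-untreated fluorescence ratio on a full-genome yeast DNA chip. Cells (S288C, YPD, 25° C.) were exposed in log phase for two hours to one chemical, dosed to curb growth without killing.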"}
{"smiles": "N#Cc1c(Cl)c(Cl)c(Cl)c(C#N)c1Cl", "note": "[(9), 2,4,5,6-tetrachloro-1,3-benzenedicarbonitrile]", "values": [{"measurement": "The level of expressed mRNA in the presence of chemical substance/The level of expressed mRNA in the absence of chemical substance", "setting": "yeast gene YAL055W", "result": 1.0}, {"measurement": "The level of expressed mRNA in the presence of chemical substance/The level of expressed mRNA in the absence of chemical substance", "setting": "yeast gene YAR010C", "result": 1.2}, {"measurement": "The level of expressed mRNA in the presence of chemical substance/The level of expressed mRNA in the absence of chemical substance", "setting": "yeast gene YBL005W-A", "result": 0.8}, {"measurement": "The level of expressed mRNA in the presence of chemical substance/The level of expressed mRNA in the absence of chemical substance", "setting": "yeast gene YBL041W", "result": 2.8}, {"measurement": "The level of expressed mRNA in the presence of chemical substance/The level of expressed mRNA in the absence of chemical substance", "setting": "yeast gene YBL043W", "result": 0.5}, {"measurement": "The level of expressed mRNA in the presence of chemical substance/The level of expressed mRNA in the absence of chemical substance", "setting": "yeast gene YBL078C", "result": 12.3}, {"measurement": "The level of expressed mRNA in the presence of chemical substance/The level of expressed mRNA in the absence of chemical substance", "setting": "yeast gene YBL102W", "result": 2.3}, {"measurement": "The level of expressed mRNA in the presence of chemical substance/The level of expressed mRNA in the absence of chemical substance", "setting": "yeast gene YBR046C", "result": 4.6}, {"measurement": "The level of expressed mRNA in the presence of chemical substance/The level of expressed mRNA in the absence of chemical substance", "setting": "yeast gene YBR139W", "result": 2.3}, {"measurement": "The level of expressed mRNA in the presence of chemical substance/The level of expressed mRNA in the absence of chemical substance", "setting": "yeast gene YBR177C", "result": 2.1}, {"measurement": "The level of expressed mRNA in the presence of chemical substance/The level of expressed mRNA in the absence of chemical substance", "setting": "yeast gene YBR212W", "result": 2.7}, {"measurement": "The level of expressed mRNA in the presence of chemical substance/The level of expressed mRNA in the absence of chemical substance", "setting": "yeast gene YBR214W", "result": 2.2}, {"measurement": "The level of expressed mRNA in the presence of chemical substance/The level of expressed mRNA in the absence of chemical substance", "setting": "yeast gene YCL020W", "result": 0.9}, {"measurement": "The level of expressed mRNA in the presence of chemical substance/The level of expressed mRNA in the absence of chemical substance", "setting": "yeast gene YCL027W", "result": 0.7}, {"measurement": "The level of expressed mRNA in the presence of chemical substance/The level of expressed mRNA in the absence of chemical substance", "setting": "yeast gene YCL033C", "result": 2.3}, {"measurement": "The level of expressed mRNA in the presence of chemical substance/The level of expressed mRNA in the absence of chemical substance", "setting": "yeast gene YCL067C", "result": 1.4}, {"measurement": "The level of expressed mRNA in the presence of chemical substance/The level of expressed mRNA in the absence of chemical substance", "setting": "yeast gene YCR004C", "result": 4.7}, {"measurement": "The level of expressed mRNA in the presence of chemical substance/The level of expressed mRNA in the absence of chemical substance", "setting": "yeast gene YCR062W", "result": 0.7}, {"measurement": "The level of expressed mRNA in the presence of chemical substance/The level of expressed mRNA in the absence of chemical substance", "setting": "yeast gene YCR071C", "result": 0.6}, {"measurement": "The level of expressed mRNA in the presence of chemical substance/The level of expressed mRNA in the absence of chemical substance", "setting": "yeast gene YCR088W", "result": 0.8}, {"measurement": "The level of expressed mRNA in the presence of chemical substance/The level of expressed mRNA in the absence of chemical substance", "setting": "yeast gene YDL007W", "result": 3.8}, {"measurement": "The level of expressed mRNA in the presence of chemical substance/The level of expressed mRNA in the absence of chemical substance", "setting": "yeast gene YDL008W", "result": 2.3}, {"measurement": "The level of expressed mRNA in the presence of chemical substance/The level of expressed mRNA in the absence of chemical substance", "setting": "yeast gene YDL018C", "result": 1.0}, {"measurement": "The level of expressed mRNA in the presence of chemical substance/The level of expressed mRNA in the absence of chemical substance", "setting": "yeast gene YDL065C", "result": 2.4}, {"measurement": "The level of expressed mRNA in the presence of chemical substance/The level of expressed mRNA in the absence of chemical substance", "setting": "yeast gene YDL197C", "result": 2.6}, {"measurement": "The level of expressed mRNA in the presence of chemical substance/The level of expressed mRNA in the absence of chemical substance", "setting": "yeast gene YDL229W", "result": 1.4}, {"measurement": "The level of expressed mRNA in the presence of chemical substance/The level of expressed mRNA in the absence of chemical substance", "setting": "yeast gene YDL230W", "result": 2.6}, {"measurement": "The level of expressed mRNA in the presence of chemical substance/The level of expressed mRNA in the absence of chemical substance", "setting": "yeast gene YDL238C", "result": 1.7}, {"measurement": "The level of expressed mRNA in the presence of chemical substance/The level of expressed mRNA in the absence of chemical substance", "setting": "yeast gene YDR055W", "result": 0.8}, {"measurement": "The level of expressed mRNA in the presence of chemical substance/The level of expressed mRNA in the absence of chemical substance", "setting": "yeast gene YDR084C", "result": 0.6}, {"measurement": "The level of expressed mRNA in the presence of chemical substance/The level of expressed mRNA in the absence of chemical substance", "setting": "yeast gene YDR085C", "result": 0.4}, {"measurement": "The level of expressed mRNA in the presence of chemical substance/The level of expressed mRNA in the absence of chemical substance", "setting": "yeast gene YDR099W", "result": 2.4}, {"measurement": "The level of expressed mRNA in the presence of chemical substance/The level of expressed mRNA in the absence of chemical substance", "setting": "yeast gene YDR104C", "result": 2.8}, {"measurement": "The level of expressed mRNA in the presence of chemical substance/The level of expressed mRNA in the absence of chemical substance", "setting": "yeast gene YDR115W", "result": 1.1}, {"measurement": "The level of expressed mRNA in the presence of chemical substance/The level of expressed mRNA in the absence of chemical substance", "setting": "yeast gene YDR125C", "result": 0.7}, {"measurement": "The level of expressed mRNA in the presence of chemical substance/The level of expressed mRNA in the absence of chemical substance", "setting": "yeast gene YDR188W", "result": 2.9}, {"measurement": "The level of expressed mRNA in the presence of chemical substance/The level of expressed mRNA in the absence of chemical substance", "setting": "yeast gene YDR257C", "result": 3.0}, {"measurement": "The level of expressed mRNA in the presence of chemical substance/The level of expressed mRNA in the absence of chemical substance", "setting": "yeast gene YDR259C", "result": 1.0}, {"measurement": "The level of expressed mRNA in the presence of chemical substance/The level of expressed mRNA in the absence of chemical substance", "setting": "yeast gene YDR315C", "result": 1.1}, {"measurement": "The level of expressed mRNA in the presence of chemical substance/The level of expressed mRNA in the absence of chemical substance", "setting": "yeast gene YDR358W", "result": 2.9}, {"measurement": "The level of expressed mRNA in the presence of chemical substance/The level of expressed mRNA in the absence of chemical substance", "setting": "yeast gene YDR388W", "result": 1.4}, {"measurement": "The level of expressed mRNA in the presence of chemical substance/The level of expressed mRNA in the absence of chemical substance", "setting": "yeast gene YDR427W", "result": 2.3}, {"measurement": "The level of expressed mRNA in the presence of chemical substance/The level of expressed mRNA in the absence of chemical substance", "setting": "yeast gene YDR432W", "result": 0.7}, {"measurement": "The level of expressed mRNA in the presence of chemical substance/The level of expressed mRNA in the absence of chemical substance", "setting": "yeast gene YDR481C", "result": 1.9}, {"measurement": "The level of expressed mRNA in the presence of chemical substance/The level of expressed mRNA in the absence of chemical substance", "setting": "yeast gene YDR506C", "result": 1.9}, {"measurement": "The level of expressed mRNA in the presence of chemical substance/The level of expressed mRNA in the absence of chemical substance", "setting": "yeast gene YDR510W", "result": 2.7}, {"measurement": "The level of expressed mRNA in the presence of chemical substance/The level of expressed mRNA in the absence of chemical substance", "setting": "yeast gene YDR515W", "result": 5.8}, {"measurement": "The level of expressed mRNA in the presence of chemical substance/The level of expressed mRNA in the absence of chemical substance", "setting": "yeast gene YEL042W", "result": 0.2}, {"measurement": "The level of expressed mRNA in the presence of chemical substance/The level of expressed mRNA in the absence of chemical substance", "setting": "yeast gene YEL052W", "result": 3.0}, {"measurement": "The level of expressed mRNA in the presence of chemical substance/The level of expressed mRNA in the absence of chemical substance", "setting": "yeast gene YEL066W", "result": 1.3}]}
